Assay results taken from ChEMBL document CHEMBL5604063, “ASAP - DENV-2 NS2B-NS3 protease fluorescence dose response” (2024).
“And” between values parts separate entries of the source, which are not always exact repeats. Equal entries are not always repeated.

What was measured:
Genome polyprotein [1] = target: T1, Genome polyprotein (dengue virus type 2, UniProt P29990); type: functional, Thailand/16681/1984
Genome polyprotein [2] = target: T1, Genome polyprotein; type: functional, Thailand/16681/1984; remark: listed apart in the source

T1 sequence (P29990 1346-1475 limits assumed): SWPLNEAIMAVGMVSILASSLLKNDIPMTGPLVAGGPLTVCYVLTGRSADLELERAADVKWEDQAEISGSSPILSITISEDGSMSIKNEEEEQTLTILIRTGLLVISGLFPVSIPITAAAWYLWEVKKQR
T1 sequence (P29990 1476-2093 limits assumed): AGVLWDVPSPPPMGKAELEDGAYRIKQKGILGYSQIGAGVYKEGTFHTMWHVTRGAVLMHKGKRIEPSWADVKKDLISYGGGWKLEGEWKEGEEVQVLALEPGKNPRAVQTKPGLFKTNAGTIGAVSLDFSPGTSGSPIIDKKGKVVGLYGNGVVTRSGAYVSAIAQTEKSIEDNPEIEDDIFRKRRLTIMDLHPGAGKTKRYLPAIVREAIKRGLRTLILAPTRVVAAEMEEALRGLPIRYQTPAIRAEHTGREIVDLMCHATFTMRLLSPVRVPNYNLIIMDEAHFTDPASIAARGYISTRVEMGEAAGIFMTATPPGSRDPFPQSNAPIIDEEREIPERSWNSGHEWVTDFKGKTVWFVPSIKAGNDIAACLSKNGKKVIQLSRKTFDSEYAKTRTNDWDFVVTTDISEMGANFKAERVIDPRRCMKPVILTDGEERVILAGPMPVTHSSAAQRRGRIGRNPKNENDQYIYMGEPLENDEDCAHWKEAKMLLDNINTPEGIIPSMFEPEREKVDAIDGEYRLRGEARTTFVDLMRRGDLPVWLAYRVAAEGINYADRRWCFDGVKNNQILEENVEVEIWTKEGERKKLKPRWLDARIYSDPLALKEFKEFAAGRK

SMILES	IC50 (Genome polyprotein [1])	IC50 (Genome polyprotein [2])
CC1(NC(=O)c2cccc3c2CC(=O)N3)CCOCC1	> 99.5 µM	> 100 µM
COc1ccc(Cl)cc1[C@H](Nc1ccc2c(c1)CNC2)C(=O)NCC(F)F	> 99.5 µM	> 100 µM
O=C1Cc2c(cccc2C(=O)N[C@H]2CCC23CCOCC3)N1	> 99.5 µM	> 100 µM
Cc1c(C(=O)Nc2cc(C(=O)N3CC[C@H](O)C3)ccn2)cc(C2CC2)n1C	> 99.5 µM	> 100 µM
O=C1Cc2c(cccc2C(=O)Nc2ccc(-c3cccnc3)cn2)N1	> 99.5 µM	> 100 µM
CS(=O)(=O)c1cc2c(cc1NC(=O)c1cc(F)cc3[nH]ncc13)CNC2	> 99.5 µM	> 100 µM
Cc1c(C(=O)Nc2cc(C(=O)N3CC[C@H](CO)C3)ccn2)cc(C2CC2)n1C	> 99.5 µM	> 100 µM
COc1ccccc1Cn1cnc2cc(C(=O)Nc3ccc4c(c3)CNC4)ccc21	> 99.5 µM	> 100 µM
Cc1ccc(-c2nc3c(C(=O)Nc4ccc5c(c4)CNC5)cc(F)cc3[nH]2)cc1	16.4 µM and 39.9 µM	70.2 µM
Cc1c(C(=O)Nc2cc(C(=O)N3CC(CO)C3)ccn2)cc(C2CC2)n1C	> 99.5 µM	> 100 µM
C[C@H](NC(=O)c1cccc2c1CC(=O)N2)c1cccc(S(C)(=O)=O)c1	> 99.5 µM	> 100 µM
O=C(NCC(F)F)[C@H](Nc1ccc2c(c1)CNC2)c1cc(Cl)cc2c1CCC2	> 99.5 µM	> 100 µM
NCCc1cc(C(=O)Nc2cc(-c3cccnc3)ccn2)no1	> 99.5 µM	> 100 µM
O=C(NCC(F)F)[C@H](Nc1ccc2c(c1)CNC2)c1cc(Cl)cc2ccoc12	> 99.5 µM	> 100 µM
Cc1c(C(=O)Nc2cc(C(=O)N(C)[C@H]3C[C@H](O)C3)ccn2)cc(C2CC2)n1C	> 99.5 µM	> 100 µM
Cc1c(C(=O)Nc2cc(C(=O)N3Cc4cn[nH]c4C3)ccn2)cc(C2CC2)n1C	> 99.5 µM	> 100 µM
CNC(=O)C[C@H]1CC[C@@H](NC(=O)c2cccc3c2CC(=O)N3)CC1	> 99.5 µM	> 100 µM
O=C1Cc2c(cccc2C(=O)N[C@H]2CCSC3(CCOCC3)C2)N1	> 99.5 µM	> 100 µM
CO[C@H]1CCCN(C(=O)c2ccnc(NC(=O)c3cc(C4CC4)n(C)c3C)c2)C1	> 99.5 µM	> 100 µM
Cn1ccc(-c2cc(F)cc(C(=O)Nc3ccc4c(c3)CNC4)c2)cc1=O	> 99.5 µM	> 100 µM
NC(=O)N1CCc2ccc(NC(=O)c3cccc4c3CC(=O)N4)cc21	> 99.5 µM	> 100 µM

SMILES	IC50 (Genome polyprotein [1])	IC50 (Genome polyprotein [2])
Cc1[nH]nc2c1CC[C@H](NC(=O)c1cccc3c1CC(=O)N3)C2	> 99.5 µM	> 100 µM
COc1cc(C#N)cc([C@H](Nc2ccc3c(c2)CNC3)C(=O)NCC(F)F)c1	> 99.5 µM	> 100 µM
N#Cc1csc2cc(C(=O)Nc3ccc4c(c3)CNC4)ccc12	> 99.5 µM	> 100 µM
C=CCNC(=O)C1(NC(=O)c2cccc3c2CC(=O)N3)CCCCC1	> 99.5 µM	> 100 µM
O=C1Cc2c(cccc2C(=O)N[C@H]2C[C@H](Cn3ccnc3)C2)N1	> 99.5 µM	> 100 µM
Cc1c(C(=O)Nc2cc(C(=O)N3CCC(O)CC3)ccn2)cc(C2CC2)n1C	> 99.5 µM	> 100 µM
Cc1c(C(=O)Nc2cc(C(=O)N3CCNC(=O)C3)ccn2)cc(C2CC2)n1C	> 99.5 µM	> 100 µM
Cn1nccc1-c1cc(NC(=O)c2cc(F)cc3[nH]ncc23)cc2c1CNC2	54.1 µM	81.4 µM
O=C1Cc2c(cccc2C(=O)N[C@H]2CC[C@@H](n3ccnn3)CC2)N1	> 99.5 µM	> 100 µM
Cc1c(C(=O)Nc2cc(C(N)=O)ccn2)cc(C2CC2)n1C	> 99.5 µM	> 100 µM
O=C1Cc2c(cccc2C(=O)NC2CC3(CCOCC3)C2)N1	> 99.5 µM	> 100 µM
O=C(Nc1ccc2c(c1)CNC2)c1cc(F)cc2[nH]c(CCc3cccnc3)nc12	> 99.5 µM	> 100 µM
O=C1Cc2c(cccc2C(=O)N[C@H]2CCc3cnccc32)N1	> 99.5 µM	> 100 µM
Cc1c(C(=O)Nc2cc(C(=O)N3CCOC[C@H](O)C3)ccn2)cc(C2CC2)n1C	> 99.5 µM	> 100 µM
Cc1c(C(=O)Nc2cc(C(=O)N3CCOCC3)ccn2)cc(C2CC2)n1C	> 99.5 µM	> 100 µM
Cc1c(C(=O)Nc2cc(C(=O)N3CCCNC(=O)C3)ccn2)cc(C2CC2)n1C	> 99.5 µM	> 100 µM
C[C@H](NC(=O)c1cccc2c1CC(=O)N2)c1ccncc1F	> 99.5 µM	> 100 µM
Cc1c(C(=O)Nc2cc(Br)c3c(c2)COC3)cc(C2CC2)n1C	> 99.5 µM	> 100 µM
Cn1nc(CNc2ccc3c(c2)CNC3)cc1C1CC1	> 99.5 µM	> 100 µM
O=C1Cc2c(cccc2C(=O)NC[C@H]2CCCN(c3nccs3)C2)N1	> 99.5 µM	> 100 µM
COc1ccc(-c2nc3c(C(=O)Nc4ccc5c(c4)CNC5)cc(F)cc3[nH]2)cc1	> 99.5 µM	> 100 µM
